From patent US8309552B2, “Immunomodulating heterocyclic compounds” (Medigene AG, priority 2003, dated 2012)
pEC50: −log10 of the molar value.

Molecular target: T1, CD80-CD28 interaction (Homo sapiens, UniProt P33681)
T1 sequence (P33681 35-242 limits assumed): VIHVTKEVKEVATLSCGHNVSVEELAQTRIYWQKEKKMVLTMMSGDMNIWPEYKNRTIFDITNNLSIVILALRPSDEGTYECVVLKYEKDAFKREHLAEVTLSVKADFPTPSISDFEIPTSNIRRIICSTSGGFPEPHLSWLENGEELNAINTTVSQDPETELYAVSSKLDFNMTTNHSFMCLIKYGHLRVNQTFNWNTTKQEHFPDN
Assay: Homogenous Time Resolved Fluorescence (HTRF) assay, cell free
Assay type: binding
Conditions: cell free HTRF assay; concentration series 100 μM-1.7 nM; 4 hours at room temperature; read-out: Activity (EC50 in the HTRF assay)
Method: Homogenous Time Resolved Fluorescence Assay
The examples described above were tested in a cell free Homogenous Time Resolved Fluorescence (HTRF) assay to determine their activity as inhibitors of the CD80-CD28 interaction.
In the assay, europium and allophycocyanin (APC) are associated with CD28 and CD80 indirectly (through antibody linkers) to form a complex, which brings the europium and APC into close proximity to generate a signal. The complex comprises the following six proteins: fluorescent label 1, linker antibody 1, CD28 fusion protein, CD80 fusion protein, linker antibody 2, and fluorescent label 2. The table below describes these reagents in greater detail.
On formation of the complex, europium and APC are brought into proximity and a signal is generated.
Non-specific interaction was measured by substituting a mouse Fab fragment (C215) for the CD80 mouse Fab fragment fusion protein (1.9 μg/ml). The assay was carried out in black 384 well plates in a final volume of 30 μl. Assay buffer: 50 mM Tris-HCl, 150 mM NaCl pH7.8, containing 0.1% BSA (w/v) added just prior to use.
Compounds were added to the above reagents in a concentration series ranging between 100 μM-1.7 nM. The reaction was incubated for 4 hours at room temperature. Dual measurements were made using a Wallac Victor 1420 Multilabel Counter. First measurement: excitation 340 nm, emission 665 nm, delay 50 μs, window time 200 μs. second measurement: excitation 340 nm, emission 615 nm, delay 50 μs, window time 200 μs. Counts were automatically corrected for fluorescence crossover, quenching and background. The EC50 activities of compounds tested are recorded as: EC50:*=>10 μM,**=1-10 μM,***=<1 μM.

| SMILES | pEC50 |
| --- | --- |
| CCN(CC)CCCNC(=O)c1ccc(-n2[nH]c3c(nnc4c(F)cccc43)c2=O)cc1 [Example 346] | > 6.00 |
| NC1CCC(NC(=O)c2ccc(-n3[nH]c4c(nnc5cccc(F)c54)c3=O)cc2)CC1 (stereo not shown) [Example 405] | > 6.00 |
| CC(CCc1ccccc1)NC(=O)Nc1ccc(-n2[nH]c3c(nnc4ccccc43)c2=O)cc1 (stereo not shown) [Example 304] | < 5.00 |
| Cc1ccccc1CCNC(=O)c1ccc(-n2[nH]c3c(nnc4c(F)cccc43)c2=O)cc1 [Example 366] | 5.00 to 6.00 |
| O=C(NCCc1cccs1)Nc1ccc(-n2[nH]c3c(nnc4ccccc43)c2=O)cc1 [Example 289] | 5.00 to 6.00 |
| O=C(Nc1ccc(-n2[nH]c3c(nnc4ccccc43)c2=O)cc1)NC1CCCC1OCc1ccccc1 (stereo not shown) [Example 292] | < 5.00 |
| O=C(NCc1ccc2c(c1)OCO2)Nc1ccc(-n2[nH]c3c(nnc4ccccc43)c2=O)cc1 [Example 286] | < 5.00 |
| CN1C(C)(C)CC(NC(=O)c2ccc(-n3[nH]c4c(nnc5ccc(F)cc54)c3=O)cc2)CC1(C)C [Example 427] | > 6.00 |
| CC(C)NCCCNC(=O)c1ccc(-n2[nH]c3c(nnc4cccc(F)c43)c2=O)cc1 [Example 395] | > 6.00 |
| O=C(NCCc1c(Cl)cccc1Cl)c1ccc(-n2[nH]c3c(nnc4c(F)cccc43)c2=O)cc1 [Example 371] | 5.00 to 6.00 |
| O=C(NC1CCN(CCC2CCCCC2)CC1)c1ccc(-n2[nH]c3c(nnc4c(F)cccc43)c2=O)cc1 [Example 336] | > 6.00 |

Continued, values first:

| pEC50 | SMILES |
| --- | --- |
| > 6.00 | CCOCCN1CCC(NC(=O)c2ccc(-n3[nH]c4c(nnc5c(F)cccc54)c3=O)cc2)CC1 [Example 335] |
| > 6.00 | O=C(NCCN1CCCC1)c1ccc(-n2[nH]c3c(nnc4ccccc43)c2=O)cc1 [Example 259] |
| < 5.00 | O=C(NCCC1=CCCCC1)c1ccc(-n2[nH]c3c(nnc4ccccc43)c2=O)cc1 [Example 272] |
| > 6.00 | O=C(NCCCN1CCOCC1)c1ccc(-n2[nH]c3c(nnc4cccc(F)c43)c2=O)cc1 [Example 397] |
| > 6.00 | O=C(NCCN1CCC(Cc2ccccc2)CC1)Nc1ccc(-n2[nH]c3c(nnc4ccccc43)c2=O)cc1 [Example 224] |
| 5.00 to 6.00 | CCC(C)CNC(=O)Nc1ccc(-n2[nH]c3c(nnc4ccccc43)c2=O)cc1 (stereo not shown) [Example 308] |
| > 6.00 | O=C(NCCNCc1ccccc1)c1ccc(-n2[nH]c3c(nnc4ccccc43)c2=O)cc1 [Example 281] |
| 5.00 to 6.00 | CCCCCCCNC(=O)c1ccc(-n2[nH]c3c(nnc4ccccc43)c2=O)cc1 [Example 245] |
| > 6.00 | O=C(NCCCCN1CCCCC1)c1ccc(-n2[nH]c3c(nnc4ccccc43)c2=O)cc1 [Example 339] |
| 5.00 to 6.00 | O=C(NCCc1ccccc1Cl)c1ccc(-n2[nH]c3c(nnc4c(F)cccc43)c2=O)cc1 [Example 360] |

Same assay, conditions: cell-free HTRF, compound concentration series 100 μM-1.7 nM, 4 hours at room temperature; read-out: Activity (EC50 in the HTRF assay)

| SMILES | pEC50 |
| --- | --- |
| O=C(NCCSCc1c(F)cccc1Cl)Nc1ccc(-n2[nH]c3c(nnc4ccccc43)c2=O)cc1 [Example 180] | < 5.00 |
| CN(C)CC(C)(C)CNC(=O)Nc1ccc(-n2[nH]c3c(nnc4ccccc43)c2=O)cc1 [Example 185] | > 6.00 |
| CC(CCc1ccccc1)NC(=O)c1ccc(-n2[nH]c3c(nnc4ccccc43)c2=O)cc1 (stereo not shown) [Example 105] | < 5.00 |
| O=C(NCCNCc1ccccc1)Nc1ccc(-n2[nH]c3c(nnc4ccccc43)c2=O)cc1 [Example 193] | > 6.00 |
| CCCCCCCCCCCCOCCCNC(=O)Nc1ccc(-n2[nH]c3c(nnc4ccccc43)c2=O)cc1 [Example 159] | > 6.00 |
| CC(C)NCCCNC(=O)Nc1ccc(-n2[nH]c3c(nnc4ccccc43)c2=O)cc1 [Example 148] | > 6.00 |
| CCCCN(CCCC)CCNC(=O)Nc1ccc(-n2[nH]c3c(nnc4ccccc43)c2=O)cc1 [Example 206] | > 6.00 |
| O=C(NC1CCCC1OCc1ccccc1)c1ccc(-n2[nH]c3c(nnc4ccccc43)c2=O)cc1 (stereo not shown) [Example 44] | < 5.00 |
| COC(=O)CNC(=O)Nc1ccc(-n2[nH]c3c(nnc4ccccc43)c2=O)cc1 [Example 154] | 5.00 to 6.00 |
| O=C(Nc1ccc(-n2[nH]c3c(nnc4ccccc43)c2=O)cc1)NC1CN2CCC1CC2 (stereo not shown) [Example 169] | > 6.00 |
| CCCNCCNC(=O)Nc1ccc(-n2[nH]c3c(nnc4ccccc43)c2=O)cc1 [Example 144] | > 6.00 |
| O=C(Nc1ccc(-n2[nH]c3c(nnc4ccccc43)c2=O)cc1)NC1CCCCC1OCc1ccccc1 (stereo not shown) [Example 212] | < 5.00 |
| O=C(NCCOCCO)Nc1ccc(-n2[nH]c3c(nnc4ccccc43)c2=O)cc1 [Example 145] | > 6.00 |
| O=C(NCCOc1ccccc1)Nc1ccc(-n2[nH]c3c(nnc4ccccc43)c2=O)cc1 [Example 208] | 5.00 to 6.00 |
| CC(C)(C)OC(=O)NCCCCCCNC(=O)Nc1ccc(-n2[nH]c3c(nnc4ccccc43)c2=O)cc1 [Example 163] | 5.00 to 6.00 |
| CCOC(=O)CCC(NC(=O)Nc1ccc(-n2[nH]c3c(nnc4ccccc43)c2=O)cc1)C(=O)OCC (stereo not shown) [Example 189] | 5.00 to 6.00 |

Now from value to compound:

| pEC50 | SMILES |
| --- | --- |
| < 5.00 | Cc1ccc2[nH]cc(CCNC(=O)c3ccc(-n4[nH]c5c(nnc6ccccc65)c4=O)cc3)c2c1 [Example 16] |
| > 6.00 | CC(C)NCCNC(=O)c1ccc(-n2[nH]c3c(nnc4ccccc43)c2=O)cc1 [Example 108] |
| < 5.00 | O=C(NC1CCCCCCCCCCC1)c1ccc(-n2[nH]c3c(nnc4ccccc43)c2=O)cc1 [Example 59] |
| < 5.00 | O=C(Nc1ccc(-n2[nH]c3c(nnc4ccccc43)c2=O)cc1)NC1CCCCC1 [Example 127] |
| 5.00 to 6.00 | CC(NC(=O)c1ccc(-n2[nH]c3c(nnc4ccccc43)c2=O)cc1)C1CCCCC1 (stereo not shown) [Example 75] |
| 5.00 to 6.00 | CN(CCNC(=O)c1ccc(-n2[nH]c3c(nnc4ccccc43)c2=O)cc1)C(=O)OC(C)(C)C [Example 97] |
| > 6.00 | CC(O)CCNC(=O)Nc1ccc(-n2[nH]c3c(nnc4ccccc43)c2=O)cc1 (stereo not shown) [Example 171] |
| 5.00 to 6.00 | COC(=O)CNC(=O)c1ccc(-n2[nH]c3c(nnc4ccccc43)c2=O)cc1 [Example 115] |
| 5.00 to 6.00 | COCCNC(=O)c1ccc(-n2[nH]c3c(nnc4ccccc43)c2=O)cc1 [Example 9a] |
| 5.00 to 6.00 | O=C(NCc1ccc(F)cc1)c1ccc(-n2[nH]c3c(nnc4ccccc43)c2=O)cc1 [Example 56] |

Same assay, conditions: cell-free HTRF, concentration series 100 μM-1.7 nM, 4 hours at room temperature; read-out: Activity (EC50 in the HTRF assay)

| SMILES | pEC50 |
| --- | --- |
| O=C(NCC(F)F)c1ccc(-n2[nH]c3c(nnc4c(F)ccc(F)c43)c2=O)cc1 [Example 500] | > 6.00 |
| CC1CC(C)CN(CCCCNC(=O)c2ccc(-n3[nH]c4c(nnc5c(F)cccc54)c3=O)cc2)C1 (stereo not shown) [Example 477] | > 6.00 |
| O=C(NC(CO)(CO)CO)c1ccc(-n2[nH]c3c(nnc4c(F)cccc43)c2=O)cc1 [Example 487] | > 6.00 |

Second part, the compound after the results:

| pEC50 | SMILES |
| --- | --- |
| > 6.00 | CC(F)CCNC(=O)c1ccc(-n2[nH]c3c(nnc4c(F)cccc43)c2=O)cc1 (stereo not shown) [Example 493] |
| > 6.00 | O=C(NCCCCN1CCC(C(F)(F)F)CC1)c1ccc(-n2[nH]c3c(nnc4c(F)cccc43)c2=O)cc1 [Example 470] |
| > 6.00 | O=C(NCCCCN1CCCC1)c1ccc(-n2[nH]c3c(nnc4ccc(Cl)cc43)c2=O)cc1 [Example 449] |

Same assay, conditions: inhibition of the CD80-CD28 interaction, 4 hours at room temperature; read-out: EC50 activity in the HTRF assay

| pEC50 | SMILES |
| --- | --- |
| 5.00 to 6.00 | CCOC(=O)c1ccc(-n2[nH]c3c(nnc4ccccc43)c2=O)cc1 [Example 9, 4-(3-oxo-1,3-dihydro-2H-pyrazolo[4,3-c]cinnolin-2-yl)benzoic acid ethyl ester] |
| < 5.00 | O=C(O)c1ccc(-n2[nH]c3c(nnc4ccccc43)c2=O)cc1 [Example 1, 4-(3-oxo-1,3-dihydro-2H-pyrazolo[4,3-c]cinnolin-2-yl)benzoic acid] |
